Earlier results on one substance are cited in patent US20100267661A1, “BETA GLUCANS AND METHODS OF USE THEREOF” (ImmuDyne, Inc., priority 2009, published 2010).

For the data set the following is noted: rats.

Turning to “(1,3)-β-D-glucan [particulate yeast (1,3)-β-D-glucan]”, the “Adverse or toxic effects” value is recorded as “no adverse or toxic effects”.
